Data as given in US10327447B2, “Phosphonate functional antimicrobial coatings for metal surfaces” (NANO SAFE COATINGS INCORPORATED, priority 2013, dated 2019).

Assays:
Salmonella enteriditis = experiment: Contact killing on treated stainless steel coupons (large droplet inoculation); assay type: cell-based; details: in as little as four hours
Listeria monocytogenes [1] = experiment: Contact killing on treated stainless steel coupons (large droplet inoculation); assay type: cell-based
Arthrobacter [2] = experiment: as above; assay type: cell-based; details: in as little as four hours
Pseudomonas sp. CT07 = experiment: as above; assay type: cell-based; details: in as little as four hours
Escherichia coli [3] = experiment: as above; assay type: cell-based; details: for change in colony forming units (cfu): in as little as four hours
Staphylococcus aureus [4] = experiment: as above; assay type: cell-based; details: in as little as four hours
Salmonella = experiment: Contact killing on treated titanium coupons; assay type: cell-based; details: after three hours of drying on the titanium surface
Protocol: (§1) A one inch by inch TiO2 square was sanded with 600 grain size sand paper, followed by an ethanol (EtOH) rinse. Samples were stored in a 120° C. oven prior to use. A 10 mM solution of compound 3 in EtOH was aerosol spayed onto the TiO2 square, allowed to air dry and placed into 120° C. oven overnight to anneal the compound followed by an EtOH rinse. Spaying, annealing and rinsing were repeated two more times.
(§2) The following bacteria were tested: Pseudomonas sp. CT07, Salmonella enteriditis, Klebsiella pneumonia, Listeria monocytogenes, Arthrobacter, Staphylococcus aureus, Pseudomonas aeruginosa PA01 and Escherichia coli. The preparation of the inoculant was performed by growing overnight cultures (10^5-10^8 cfu/ml) in 10% tryptic soy broth at room temperature and with agitation. The cells were then washed from the broth by using a centrifuge at 9000×g for 2 minutes. This step was performed to remove a nutrition source for the bacteria during the test phase.
(§3) Stainless steel coupons were treated by overnight immersion in a 1% ethanolic solution (aqueous solutions may also be used) of antimicrobial phosphonate and an overnight cure at 100° C. Untreated control (“C”), compound 2 (“S1”), compound 3 (“S2”) and Bio-Protect® AM500 silicone quaternary ammonium salt (N-(3-(trimethoxy)silylpropyl)-N,N-dimethyloctadecan-1-ammonium chloride) treated (“BSC”) stainless steel coupons were then inoculated with 0.1 mL of the overnight bacterial inoculant and were then placed in a fumehood to allow the samples to dry for 2 hours. After the appropriate time lapse the coupons were then placed into a 10 mL tube of sterile 0.9% saline and vigorously vortexed for a minute to remove the adherent cells. A dilution series was made from this solution and the series was plated onto 10% tryptic soy agar plates for enumeration. This was again repeated after 4 hours, 6 hours and 24 hours of drying.
(§4) Titanium metal coupons were treated similarly as above and tested for antibacterial activity against Salmonella and S. aureus.

S. aureus = experiment: Contact killing on treated titanium coupons; assay type: cell-based; details: after three hours of drying on the titanium surface
Protocol: as §1, §2, §3, §4

Klebsiella pneumonia = experiment: Contact killing on treated stainless steel coupons (large droplet inoculation); assay type: cell-based; details: in as little as four hours
Pseudomonas PA01 = experiment: as above; assay type: cell-based, Pseudomonas aeruginosa PA01; details: in as little as four hours
Staphylococcus aureus [5] = experiment: Minimum inhibitory concentration determination; assay type: cell-based
Source text: Test organisms included gram-positive and gram-negative bacterial strains: Staphylococcus aureus, Listeria monocytogenes, Salmonella interiditis, and Escherichia coli.

Arthrobacter [6] = experiment: Antimicrobial surface treatment durability (retest after saline storage); assay type: cell-based; details: treated titanium coupons stored in saline for 24 hours, washed, dried, re-innoculated
Protocol: Titanium metal coupons treated with compound 2 as in Example 28 were further tested for surface treatment durability. The treated coupons were stored in saline for 24 hours from the first antimicrobial trial, removed, dried, washed with distilled H2O, dried re-innoculated with Arthrobacter and retested.

P. aeroguinosa = experiment: Agar testing of treated titanium coupons; assay type: cell-based; details: titanium coupons affixed to agar petri dishes; control fully colonized
Source text: The titanium coupon samples were subjected to agar testing in which the samples were affixed to agar petri dishes and inoculated with P. aeroguinosa.

Salmonella interiditis = experiment: Minimum inhibitory concentration determination; assay type: cell-based; details: 1% stock solution in H2O, stabilized or no stabilizer
Protocol: (§5) Solutions of phosphonate antimicrobials (0.01 g/mL or 1%) were dissolved in H2O or ethanol, inoculated with the test organism and serially diluted from 10^−1-10^−3, representing a dilution range from 0.01 g/mL to 0.00001 g/mL, followed by plate counts to determine the minimum inhibitory concentration (MIC) values. Test organisms included gram-positive and gram-negative bacterial strains: Staphylococcus aureus, Listeria monocytogenes, Salmonella interiditis, and Escherichia coli.
(§6) Sample 1 was a 1% solution of compound 3; sample 2 was 1% solution of the sodium salt of compound 3; sample 3 was a 1% solution of compound 3 prepared by HCl dealkylation of N-(3-diisopropoxyphosphorylpropyl)-N,N-dimethyloctadecan-1-ammonium bromide.

Listeria monocytogenes [7] = experiment: Minimum inhibitory concentration determination; assay type: cell-based; details: 1% stock solution in H2O, stabilized or no stabilizer
Protocol: as §5, §6

Escherichia coli [8] = experiment: Minimum inhibitory concentration determination; assay type: cell-based; details: 1% stock solution in H2O, stabilized or no stabilizer
Protocol: as §5, §6

bacterial strains = details: strain not stated; cited from earlier work

SMILES | change in colony forming units (cfu) (Salmonella enteriditis) | melting point | antibacterial activity compared to BSC (Listeria monocytogenes [1]) | change in colony forming units (cfu) (Arthrobacter [2]) | change in colony forming units (cfu) (Pseudomonas sp. CT07) | change in colony forming units (cfu) (Escherichia coli [3]) | change in colony forming units (cfu) (Staphylococcus aureus [4]) | bacterial colonies (cfu) on treated titanium surface (Salmonella) | bacterial colonies (cfu) on treated titanium surface (S. aureus) | change in colony forming units (cfu) (Klebsiella pneumonia) | change in colony forming units (cfu) (Pseudomonas PA01) | also measured
CCCCCCCCCCCCCCCCCC[N+](C)(C)CCCP(=O)(O)O [compound 3, N-(3-phosphonopropyl)-N,N-dimethyloctadecan-1-ammonium Bromide] | eradication | 118 to 120 °C | comparable antibacterial activity | eradication | eradication | eradication | eradication | eradication | eradication | eradication | eradication | –
CCCCCCCCCCCCCCCCCC[N+](C)(C)CCCP(=O)(OCC)OCC.[Br-] [compound 2, N-(3-diethoxyphosphorylpropyl)-N,N-dimethyloctadecan-1-ammonium Bromide] | eradication | – | comparable antibacterial activity | eradication | eradication | eradication | eradication | significant reduction of bacterial colonies | significant reduction of bacterial colonies | eradication | eradication | change in colony forming units (cfu) (Listeria monocytogenes [1]; after 24 hours): completely eradicated; inhibition of S. aureus (Staphylococcus aureus [5]; 1% solution, even at 100 μg/mL concentrations): highly inhibitory; colony reductions (Arthrobacter [6]): 10^6 to 0; visible colonies around or on the samples (P. aeroguinosa): no visible colonies
CCCCCCCCCCCCCCCCCC[N+](C)(C)CCC[Si](OC)(OC)OC.[Cl-] [BSC, N-(3-(trimethoxy)silylpropyl)-N,N-dimethyloctadecan-1-ammonium chloride] | – | – | – | – | – | – | – | – | – | – | – | concentration at which strain was inhibited (Salmonella interiditis): ≤ 100 µg/mL; concentration at which strain was inhibited (Listeria monocytogenes [7]): ≤ 100 µg/mL; concentration at which strain was inhibited (Escherichia coli [8]): ≤ 100 µg/mL; time to eradication compared to the four hours of S1/S2 (Escherichia coli [3]): took longer; literature MIC values (bacterial strains): 84 µg/mL; concentration at which strain was inhibited (Staphylococcus aureus [5]; 1% stock solution in H2O, stabilized or no stabilizer): ≤ 100 µg/mL
CCCCCCCCCCCCCCCCCC[N+](C)(C)CCCP(=O)(OC(C)C)OC(C)C.[Br-] | – | 54 to 55 °C | – | – | – | – | – | – | – | – | – | –
